pIC50: −log10 of the molar value.

In this assay the target is T1, CDK2/Cyclin E complex (Homo sapiens, UniProt P24941).
T1 construct: purchased Eurofins 14-475
In words: CDK2/Cyclin E fluorescence-based microfluidic mobility shift assay (CDK2 Biochemical Caliper Assay). To be noted: read-out: Biochemical CDK2/CyclinE Caliper IC50. In outline:
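Wild-type CDK2/Cyclin E was preincubated with compound and ATP for 30 min at RT before the 5-FAM-QSPKKG peptide was added. Final concentrations were 0.1 nM enzyme, 2000 uM ATP, 1.5 uM peptide and 1% DMSO. After 20 hr at RT and EDTA stop, substrate conversion was read by microfluidic mobility shift over an 11-point, 3-fold dilution series.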
Take `CC(C)c1ccnnc1OC[C@H]1C[C@H](c2cc(Nc3nccc4ncsc34)n[nH]2)C1` [Example 439]: the pIC50 was 4.00 to 6.00.
Regarding `COCc1cc(C(=O)Nc2cc([C@H]3C[C@@H](COc4nscc4C4CC4)C3)[nH]n2)n(C)n1` [Example 454], the pIC50 is not below 7.00.
To `COCc1cc(C(=O)Nc2cc([C@H]3C[C@H](COc4nscc4C4CC4)C3)[nH]n2)n(C)n1` [Example 455] belongs 4.00 to 6.00.
On to `CC(C)NC(=O)OC[C@H]1C[C@@H](c2cc(Nc3nccc4ncsc34)n[nH]2)C1` [Example 456], for which the pIC50 was not below 7.00.
The value for `CC(C)NC(=O)OC[C@H]1C[C@H](c2cc(Nc3nccc4ncsc34)n[nH]2)C1` [Example 457] was 6.00 to 6.60; that for `COCc1cc(C(=O)Nc2cc([C@H]3C[C@@H](Oc4nnccc4C(C)C)CO3)[nH]n2)n(C)n1` [Example 458] was not below 7.00.
In the case of `COCc1cc(C(=O)Nc2cc([C@@H]3C[C@H](Oc4nnccc4C(C)C)CO3)[nH]n2)n(C)n1` [Example 459], the pIC50 was not below 7.00.
To `COCc1cc(C(=O)Nc2cc([C@H]3C[C@@H](COC(=O)NC(C)C)C3)[nH]n2)n(C)n1` [Example 460] belongs not below 7.00; to `COCc1cc(C(=O)Nc2cc([C@H]3C[C@H](COC(=O)NC(C)C)C3)[nH]n2)n(C)n1` [Example 461], 4.00 to 6.00.
Regarding `CC(C)c1ccnnc1O[C@H]1CO[C@@H](c2cc(Nc3nccn4nccc34)n[nH]2)C1` [Example 464], the pIC50 is not below 7.00.
The value for `CC(C)c1ccnnc1O[C@@H]1CO[C@H](c2cc(Nc3nccn4nccc34)n[nH]2)C1` [Example 465] was not below 7.00.
In the case of `CC(C)c1ccnnc1OC[C@H]1C[C@@H](c2cc(Nc3nccn4nccc34)n[nH]2)C1` [Example 488], the pIC50 was not below 7.00.
The value for `CC(C)c1ccnnc1OC[C@H]1C[C@H](c2cc(Nc3nccn4nccc34)n[nH]2)C1` [Example 489] was 6.00 to 6.60; that for `COCc1cc2c(Nc3cc([C@H]4C[C@@H](Oc5nnccc5C(C)C)CO4)[nH]n3)nccn2n1` [Example 496] was not below 7.00.
Turning to `COCc1cc2c(Nc3cc([C@@H]4C[C@H](Oc5nnccc5C(C)C)CO4)[nH]n3)nccn2n1` [Example 497], the pIC50 is not below 7.00.
The value for `Cc1ncccc1OC[C@H]1C[C@@H](c2cc(Nc3nccn4nccc34)n[nH]2)C1` [Example 513] was 6.60 to 7.00; that for `Cc1ncccc1OC[C@H]1C[C@H](c2cc(Nc3nccn4nccc34)n[nH]2)C1` [Example 514] was 4.00 to 6.00; that for `COCc1cc(C(=O)Nc2cc([C@H]3C[C@]4(CN(CC(C)C)C(=O)N4)C3)[nH]n2)n(C)n1` [Example 515] was 4.00 to 6.00.
On to `COCc1cc(C(=O)Nc2cc([C@H]3C[C@@]4(CN(CC(C)C)C(=O)N4)C3)[nH]n2)n(C)n1` [Example 516], for which the pIC50 is 6.00 to 6.60.
The value for `COCc1cc2c(Nc3cc([C@H]4C[C@@H](COc5nnccc5C(C)C)C4)[nH]n3)nccn2n1` [Example 519] was not below 7.00; that for `COCc1cc2c(Nc3cc([C@H]4C[C@H](COc5nnccc5C(C)C)C4)[nH]n3)nccn2n1` [Example 520] was 4.00 to 6.00.
Regarding `Cc1ncccc1O[C@@H]1CO[C@H](c2cc(Nc3nccn4nccc34)n[nH]2)C1` [Example 521], the pIC50 was 4.00 to 6.00.
Take `Cc1ncccc1O[C@H]1CO[C@@H](c2cc(Nc3nccn4nccc34)n[nH]2)C1` [Example 522]: the pIC50 is 6.00 to 6.60.
To `CC(C)c1ccnnc1O[C@H]1CO[C@@H](c2cc(Nc3nccc4ncsc34)n[nH]2)C1` [Example 523] belongs not below 7.00.
`CC(C)c1ccnnc1O[C@@H]1CO[C@H](c2cc(Nc3nccc4ncsc34)n[nH]2)C1` [Example 524]: the pIC50 is not below 7.00.
To `COCc1cc(C(=O)Nc2cc([C@H]3C[C@@](C)(CC(=O)NC(C)C)C3)[nH]n2)n(C)n1` [Example 532] belongs 4.00 to 6.00.
Consider `COCc1cc(C(=O)Nc2cc([C@H]3C[C@](C)(CC(=O)NC(C)C)C3)[nH]n2)n(C)n1` [Example 533], for which the pIC50 was 4.00 to 6.00.
To `c1cncc(OC[C@H]2C[C@@H](c3cc(Nc4nccn5nccc45)n[nH]3)C2)c1` [Example 536] belongs not below 7.00; to `c1cncc(OC[C@H]2C[C@H](c3cc(Nc4nccn5nccc45)n[nH]3)C2)c1` [Example 537], 4.00 to 6.00; to `COCc1cc(C(=O)Nc2cc([C@H]3C[C@@H]4[C@H](C3)[C@H]4C(=O)N(C)C)[nH]n2)n(C)n1` [Example 540], 4.00 to 6.00.
Turning to `COCc1cc(C(=O)Nc2cc([C@H]3C[C@]4(C3)NC(=O)N(CC(C)C)C4=O)n[nH]2)n(C)n1` [Example 541], the pIC50 was 4.00 to 6.00.
For the compound `COCc1cc2c(Nc3cc([C@H]4C[C@@H](OC(=O)NC(C)C)CO4)[nH]n3)nccn2n1` [Example 544], the pIC50 was not below 7.00.
To `COCc1cc2c(Nc3cc([C@@H]4C[C@H](OC(=O)NC(C)C)CO4)[nH]n3)nccn2n1` [Example 545] belongs not below 7.00; to `COCc1cc(C(=O)Nc2cc(N3CC(COC(=O)NC(C)C)C3)[nH]n2)n(C)n1` [Example 558], 4.00 to 6.00.
With `COCc1cc2c(Nc3cc([C@H]4C[C@H](COC(=O)NC(C)C)C4)[nH]n3)nccn2n1` [Example 560], the pIC50 is 6.60 to 7.00.
To `COCc1cc(C(=O)Nc2cc([C@H]3C[C@@H](COc4cccnc4)C3)[nH]n2)n(C)n1` [Example 561] belongs 4.00 to 6.00; to `COCc1cc(C(=O)Nc2cc([C@H]3C[C@H](COc4cccnc4)C3)[nH]n2)n(C)n1` [Example 562], 4.00 to 6.00; to `CC(C)c1[nH]ncc1OC[C@H]1C[C@@H](c2cc(Nc3nccn4nccc34)n[nH]2)C1` [Example 582], not below 7.00.
The value for `CC(C)c1[nH]ncc1OC[C@H]1C[C@H](c2cc(Nc3nccn4nccc34)n[nH]2)C1` [Example 583] was 4.00 to 6.00; that for `COCc1cc2c(Nc3cc([C@H]4C[C@@H](COc5cccnc5)C4)[nH]n3)nccn2n1` [Example 586] was 6.00 to 6.60; that for `COCc1cc(C(=O)Nc2cc([C@H]3C[C@@H](COc4cn[nH]c4C(C)C)C3)[nH]n2)n(C)n1` [Example 587] was 6.60 to 7.00.
Consider `COCc1cc2c(Nc3cc([C@H]4C[C@@H](COc5cn[nH]c5C(C)C)C4)[nH]n3)nccn2n1` [Example 588], for which the pIC50 is not below 7.00.
`CC(C)NC(=O)OC[C@H]1C[C@@H](c2cc(Nc3ccc4c(n3)C(C)(C)NC4=O)n[nH]2)C1` [Example 589]: the pIC50 was not below 7.00.
The value for `COCc1cc2c(Nc3cc([C@H]4C[C@@H](OC(=O)NC5(C)CC5)CO4)[nH]n3)nccn2n1` [Example 619] was not below 7.00; that for `COCc1cc2c(Nc3cc([C@@H]4C[C@H](OC(=O)NC5(C)CC5)CO4)[nH]n3)nccn2n1` [Example 620] was not below 7.00.
In the case of `COCc1cc2c(Nc3cc([C@H]4C[C@@H](COC(=O)N5[C@@H](C)CC[C@@H]5C)C4)[nH]n3)nccn2n1` [Example 621], the pIC50 was not below 7.00.
To `COCc1cc(C(=O)Nc2cc([C@H]3C[C@@H](COc4cn[nH]c4C(C)(C)C)C3)[nH]n2)n(C)n1` [Example 622] belongs not below 7.00; to `COCc1cc(C(=O)Nc2cc([C@H]3C[C@@H](COc4cn(C)nc4C(C)C)C3)[nH]n2)n(C)n1` [Example 623], 6.60 to 7.00.
The value for `CCOCc1cc(C(=O)Nc2cc([C@H]3C[C@@H](COC(=O)NC(C)C)C3)[nH]n2)n(C)n1` [Example 624] was not below 7.00; that for `CCOCc1cc(C(=O)Nc2cc([C@H]3C[C@H](COC(=O)NC(C)C)C3)[nH]n2)n(C)n1` [Example 625] was 4.00 to 6.00.
For the compound `COCc1cc(C(=O)Nc2cc([C@H]3CC[C@@H](OC(=O)NC(C)C)CC3)[nH]n2)n(C)n1` [Example 626], the pIC50 was 6.00 to 6.60.
In the case of `COCc1cc(C(=O)Nc2cc([C@H]3CC[C@@H](Oc4nnccc4C(C)C)CC3)[nH]n2)n(C)n1` [Example 627], the pIC50 was not below 7.00.
`COCc1cc(C(=O)Nc2cc([C@@H]3CC[C@H](Oc4cn[nH]c4C(C)C)C3)[nH]n2)n(C)n1` [Example 628]: the pIC50 is 6.00 to 6.60.
The value for `COCc1cc(C(=O)Nc2cc([C@H]3CC[C@@H](Oc4cn[nH]c4C(C)C)C3)[nH]n2)n(C)n1` [Example 629] was 6.60 to 7.00; that for `COCc1cc2c(Nc3cc([C@H]4C[C@@H](COc5cn[nH]c5C(C)(C)C)C4)[nH]n3)nccn2n1` [Example 630] was not below 7.00; that for `COCc1cc(C(=O)Nc2cc([C@H]3C[C@@H](COc4cnn(C)c4C(C)C)C3)[nH]n2)n(C)n1` [Example 631] was 6.60 to 7.00.
To `COCc1cc(C(=O)Nc2cc([C@H]3C[C@@H](COc4nncn4C(C)(C)C)C3)[nH]n2)n(C)n1` [Example 632] belongs not below 7.00; to `COCc1cc(C(=O)Nc2cc([C@H]3C[C@@H](COc4nncn4C(C)C)C3)[nH]n2)n(C)n1` [Example 633], not below 7.00.
The value for `CC(C)NC(=O)O[C@@H]1CO[C@H](c2cc(NC(=O)c3cc(CN4CCCC4)nn3C)n[nH]2)C1` [Example 634] was 6.60 to 7.00.
Take `CC(C)n1cnnc1OC[C@H]1C[C@@H](c2cc(Nc3nccn4nccc34)n[nH]2)C1` [Example 635]: the pIC50 is not below 7.00.
To `COCc1cc2c(Nc3cc([C@H]4C[C@@H](COc5nncn5C(C)(C)C)C4)[nH]n3)nccn2n1` [Example 636] belongs not below 7.00.
Take `CC(C)(C)n1cnnc1OC[C@H]1C[C@@H](c2cc(Nc3nccn4nccc34)n[nH]2)C1` [Example 637]: the pIC50 is not below 7.00.
The value for `COCc1cc2c(Nc3cc([C@H]4C[C@@H](OC(=O)N[C@H](C)CC(F)(F)F)CO4)[nH]n3)nccn2n1` [Example 638] was not below 7.00.
With `COCc1cc2c(Nc3cc([C@H]4C[C@@H](OC(=O)N[C@@H](C)CC(F)(F)F)CO4)[nH]n3)nccn2n1` [Example 639], the pIC50 is not below 7.00.
With `COCc1cc2c(Nc3cc([C@H]4C[C@@H](OC(=O)NC5(C(F)(F)F)CC5)CO4)[nH]n3)nccn2n1` [Example 640], the pIC50 was not below 7.00.

(Values after US20240190855A1 (Relay Therapeutics, Inc., priority 2021, published 2024).)
